Data taken from ChEMBL document CHEMBL5303304, “EUbOPEN Chemogenomics Library - IncuCyte” (2023).

Tests used:
Format in all cases: toxicity, cell-based
Fibroblast = test: Incucyte cell viability with human fibroblast; conditions: 10 µM, compound concentration 10 uM
U2OS = test: Incucyte cell viability with U2OS; conditions: human, 10 µM, compound concentration 10 uM
HEK-293T = test: Incucyte cell viability with HEK293T; conditions: human, 10 µM, compound concentration 10 uM
Also: unitless GR value; below 1 slowed growth and below 0 cell loss.

Compound	Growth Rate (Fibroblast; 12 h, replicate number 2)	Growth Rate (Fibroblast; 18 h, replicate number 2)	Growth Rate (Fibroblast; 24 h, replicate number 2)	Growth Rate (U2OS; 0 h, replicate number 1)	Growth Rate (U2OS; 6 h, replicate number 1)	Growth Rate (U2OS; 6 h, replicate number 2)	Growth Rate (U2OS; 12 h, replicate number 1)	Growth Rate (U2OS; 12 h, replicate number 2)	Growth Rate (U2OS; 18 h, replicate number 1)	Growth Rate (U2OS; 18 h, replicate number 2)	Growth Rate (U2OS; 24 h, replicate number 1)	Growth Rate (U2OS; 24 h, replicate number 2)	Growth Rate (HEK-293T; 6 h, replicate number 2)	Growth Rate (HEK-293T; 12 h, replicate number 1)	Growth Rate (HEK-293T; 12 h, replicate number 2)	Growth Rate (HEK-293T; 18 h, replicate number 1)	Growth Rate (HEK-293T; 18 h, replicate number 2)	Growth Rate (HEK-293T; 24 h, replicate number 1)	Growth Rate (HEK-293T; 24 h, replicate number 2)	Growth Rate (Fibroblast; 24 h, replicate number 1)	also measured
NC(=O)c1cc2c(-c3ccc(C(=O)NCc4ccnc(Cl)c4)s3)cccc2s1	-0.43	-0.25	-0.11	-0.34	-0.24	-0.51	0.05	-0.23	0	-0.03	0.05	0.03	-0.71	-0.4	-0.32	-0.29	-0.17	-0.23	-0.09	–	Growth Rate (Fibroblast; 6 h, replicate number 1): -1; Growth Rate (Fibroblast; 6 h, replicate number 2): -0.95; Growth Rate (U2OS; 0 h, replicate number 2): 0.46; Growth Rate (HEK-293T; 6 h, replicate number 1): -0.51
Cc1cc(C2CCCNC2)ccc1Nc1ncc(Br)c(NCc2cccc3c2C(C)(C)C(=O)N3)n1 (stereo unspecified)	0.81	0.49	0.32	-0.95	–	0.86	–	0.61	0.88	0.46	0.8	0.37	0.05	0.08	0.09	0.07	0.12	-0.01	0.13	0.34	Growth Rate (Fibroblast; 18 h, replicate number 1): 0.61; Growth Rate (HEK-293T; 6 h, replicate number 1): 0.39
COc1ccccc1[C@@H]1CNCCC12CCN(C(=O)[C@](OC)(c1ccccc1)C(F)(F)F)CC2	0.7	0.97	0.68	-0.8	0.37	–	0.85	–	0.73	0.99	0.53	0.82	–	0.43	–	0.28	0.64	0.22	0.34	0.63	Growth Rate (Fibroblast; 0 h, replicate number 1): -1; Growth Rate (Fibroblast; 6 h, replicate number 1): 0.9; Growth Rate (Fibroblast; 12 h, replicate number 1): 0.93; Growth Rate (Fibroblast; 18 h, replicate number 1): 0.54; Growth Rate (U2OS; 0 h, replicate number 2): 0.59
CCC(=O)Nc1cc(Nc2cc(NC3CC3)n3ncc(C#N)c3n2)ccc1C	0.67	0.61	0.85	-1	0.24	0.61	0.12	0.52	0.39	0.54	0.44	0.53	0.94	0.79	0.59	0.79	0.83	0.81	0.83	0.48	Growth Rate (Fibroblast; 6 h, replicate number 1): 0.76; Growth Rate (Fibroblast; 6 h, replicate number 2): 0.41; Growth Rate (Fibroblast; 12 h, replicate number 1): 0.46; Growth Rate (Fibroblast; 18 h, replicate number 1): 0.33; Growth Rate (HEK-293T; 0 h, replicate number 2): -0.72; Growth Rate (HEK-293T; 6 h, replicate number 1): 0.87
CCc1ccc(N(CC(C)C)S(=O)(=O)c2ccc(OCC3CCOCC3)c(CO)c2)cc1 [GSK2981278]	–	0.7	0.85	0.11	0.9	0.96	–	–	0.98	–	–	–	–	0.83	0.5	0.81	0.48	0.82	0.53	0.91	Growth Rate (Fibroblast; 0 h, replicate number 2): 0.86; Growth Rate (U2OS; 0 h, replicate number 2): 0.13; Growth Rate (HEK-293T; 0 h, replicate number 1): -0.35; Growth Rate (HEK-293T; 6 h, replicate number 1): 0.86
CCc1ccccc1C(=O)Nc1n[nH]c2c(C)c(F)c(C3C(C#N)=C(C)N(C)C(C)=C3C#N)cc12 [BAY-3827]	–	–	–	–	–	0.51	0.96	0.66	0.9	0.62	0.9	0.57	0.11	–	0.34	0.99	0.66	–	0.71	–	Growth Rate (Fibroblast; 0 h, replicate number 1): 0.47; Growth Rate (Fibroblast; 0 h, replicate number 2): -0.1; Growth Rate (HEK-293T; 0 h, replicate number 1): 0.25; Growth Rate (HEK-293T; 0 h, replicate number 2): -0.99
Cn1cc(NC(=O)c2ccc3nc4n(c3c2)CCCNC4=O)nc1C(=O)NC1CCCC1	0.76	0.78	0.92	0.36	–	–	0.82	0.97	0.95	0.99	0.91	–	0.99	0.69	0.88	0.64	0.85	0.81	0.9	0.79	Growth Rate (Fibroblast; 0 h, replicate number 1): 0.88; Growth Rate (Fibroblast; 0 h, replicate number 2): 0.62; Growth Rate (Fibroblast; 6 h, replicate number 2): 0.57; Growth Rate (Fibroblast; 12 h, replicate number 1): 0.67; Growth Rate (Fibroblast; 18 h, replicate number 1): 0.91; Growth Rate (HEK-293T; 0 h, replicate number 2): 0.71
